The source of these data is ChEMBL document CHEMBL1157539, “Thousands of chemical starting points for antimalarial lead identification” (Nature, 2010).

SMILES strings stand for the structures.

For the assay, the system named is Plasmodium falciparum. Kind of assay: GSK_TCMDC: Inhibition of Plasmodium falciparum 3D7 in whole erythrocytes, using parasite LDH activity as an index of growth. It is filed as functional, organism-based. As to conditions: Plasmodium falciparum, 3D7.

The compound `Cc1cc(N[C@@H](Cc2ccccc2)C(=O)Nc2ccccc2)nc(NCCc2cccs2)n1` came in with an XC50 of 796 nM. As to `Cc1ccc(/C=C/C(=O)NCCCCCN2CCC(c3c[nH]c4ccccc34)CC2)cc1`, the XC50 worked out at 1010 nM. Consider `CC(=O)Nc1cccc(C(=O)Nc2cccc(-c3cccc(-c4nc5ccccc5[nH]4)c3)c2)c1`, for which the XC50 came out at 594 nM.

The compound `O=C(Nc1ccc(-c2nc3ccccc3[nH]2)cc1)c1ccc(Cl)c([N+](=O)[O-])c1` came in with an XC50 of 802 nM.

Turning to `COc1ccc(-c2nnc(Sc3ccc(C#N)c([N+](=O)[O-])c3)n2CCC(C)C)cc1`, the XC50 was determined as 1110 nM.

The compound `COc1ccc(CN2CCC(C(=O)Nc3cccc(-c4cccc(Cl)c4)c3)CC2)cc1O` had an XC50 of 975 nM. The compound `COc1ccc(CCNC(=O)c2cc3c(=O)n4cccc(C)c4nc3n(C)c2=N)cc1` gave an XC50 of 762 nM. As to `CCN(CC)CCCCNc1cc(-c2[nH]c(-c3c(Cl)cccc3Cl)nc2-c2ccc3cc(OC)ccc3c2)ccn1`, the XC50 was 958 nM. Compound `CC(=O)Nc1ccc([N+](=O)[O-])c2c(Br)cccc12` yielded an XC50 of 636 nM.

Compound `COc1ccc(CNCc2ccc(-c3ccc(-c4nc5cccc(C)c5[nH]4)cc3)cc2)cc1` yielded an XC50 of 341 nM. Compound `COc1ccccc1C1CCN(Cc2csc(NC(=O)c3ccc(-c4ccc(C(F)(F)F)cc4)cc3)n2)CC1` returned an XC50 of 954 nM. `CC1=C(C(=O)Nc2cc3cn[nH]c3cc2F)C(c2ccc(Cl)c(NS(C)(=O)=O)c2)CC(=O)N1` (stereo not given) yielded an XC50 of 482 nM. As for `O=C(/C=C/c1ccc(Cl)c(Cl)c1)N1CCC(NCc2ccc3[nH]ccc3c2)CC1`, the XC50 stood at 1020 nM.

`Cn1c(C2CC3CCC(C2)N3CC2CCC(NC(=O)/C=C/c3ccc(Cl)c(Cl)c3)CC2)nc2ccccc21` (stereo not given) came in with an XC50 of 563 nM. `O=C(NC1CCN(Cc2ccccc2)CC1)c1cc(-c2ccncc2)nc2ccc(Cl)cc12` gave an XC50 of 920 nM. The compound `Cc1nc(-c2ccccc2)nc(N2CCN(C(=O)c3ccco3)CC2)c1Cc1ccccc1F` registered an XC50 of 927 nM. In the case of `CC(C)(C)Oc1ccc(CC2NC3(C(=O)N(Cc4ccc(C(C)(C)C)cc4)c4ccccc43)C3C(=O)N(c4ccc(Br)cc4)C(=O)C23)cc1` (stereo not given), the XC50 stood at 717 nM. Compound `O=C(NC1CCN(Cc2ccc3c(c2)OCCO3)CC1)c1ccc(-c2cccc(Cl)c2)s1` had an XC50 of 1910 nM. For the compound `CCCc1cc(C)ccc1OCCCON1C(N)=NC(N)=NC1(C)C`, the XC50 worked out at 3.2 nM. Consider `Cc1[nH]c2ccccc2c1C=NNc1nc(=Nc2ccccc2)[nH]c(=Nc2ccccc2)[nH]1`, for which the XC50 came out at 926 nM. To `Cc1cc(=NN=Cc2ccc(Cl)cc2)c2cc(F)ccc2[nH]1` belongs 828 nM. Compound `COc1cc(C(=O)NC2CC(C)(C)N(C)C(C)(C)C2)ccc1-c1nc2cc(Cl)c(Cl)cc2[nH]1` showed an XC50 of 788 nM. To `FC(F)(F)c1ccc2[nH]ccc(=NN=Cc3ccccc3)c2c1` belongs 1170 nM; to `FC(F)(F)CNc1nc(Nc2ccc3ncccc3c2)nc2[nH]ccc12`, 1240 nM. As to `O=C(N[C@@H](Cc1ccccc1)[C@H](O)CNC1CCOCC1)c1cc(C2CCCC2)cc(N2CCCCS2(=O)=O)c1`, the XC50 was determined as 202 nM. `N#Cc1ccccc1C1CCN(C2CCC(Nc3cc(-c4cccnc4)ccn3)CC2)CC1` (stereo not given) registered an XC50 of 958 nM. In the case of `CCc1c(C)nc(-n2nc(C)cc2NC(=O)c2ccc(OC)cc2OC)[nH]c1=O`, the XC50 was found to be 827 nM.

`COc1ccc(-c2cnc3[nH]cc(-c4ccc(CCC(=O)O)cc4)c3c2)cn1` gave an XC50 of 773 nM. In turn, `COc1ccc(CC2(c3ccc(F)cc3)N=C(N)N(CCCc3ccc4c(c3)OCO4)C2=O)cc1` (stereo not given) displayed an XC50 of 739 nM.

`CCOC(=O)c1c(CN2CCCC2)n(-c2ccccc2)c2cc(Br)c(O)cc12`: the XC50 came to 1010 nM.

Take `CCN(CC(C)O)C(=O)c1ccc(-c2ccc(-c3nc4cccc(C)c4[nH]3)cc2)cc1` (stereo not given): the XC50 came to 840 nM. `CCCCCOc1ccc(C(O)C(CN2CCCCC2)c2ccccc2)cc1` (stereo not given) came in with an XC50 of 877 nM.

The compound `CC(Cc1ccc(NS(=O)(=O)c2ccc(CC(C)NCCc3cccc(Cl)c3)cc2)cc1)NCCc1cccc(Cl)c1` (stereo not given) gave an XC50 of 775 nM.

With `COC(=O)c1ccc(Nc2nccc(Nc3ccc(Oc4ccccc4)cc3)n2)cc1`, the XC50 was found to be 1020 nM. As to `Cc1c(-c2cccc(Br)c2)[nH]c2nc(N)nc(N)c12`, the XC50 came to 743 nM. For the compound `N#Cc1ccc2[nH]cc(CN3CCC4(CC3)CN(CCNCc3ccccc3)C(=O)O4)c2c1`, the XC50 was 1160 nM. As to `CCCCNC(=N)c1ccc(OCCCCCOc2ccc(C(=N)NCCCC)cc2)cc1`, the XC50 was 114 nM.

For the compound `CCOc1cc(C(=O)NCc2cccc(C(F)(F)F)c2)ccc1-c1nc2cc(Cl)ccc2[nH]1`, the XC50 was 977 nM. Compound `O=C(NC(CCCN1CCC(c2ccccc2)CC1)c1ccc(Cl)c(Cl)c1)c1cc(C(F)(F)F)cc(C(F)(F)F)c1` (stereo not given) had an XC50 of 865 nM. Regarding `COc1ccc(-c2ccc(NC(=O)c3cccc(C#N)c3)cc2)cc1CN1CCCN(C)CC1`, the XC50 worked out at 293 nM.

Turning to `O=C1CC(C(=O)O)CC(=O)N1`, the XC50 is 763 nM. `CN(C)CCOc1ccc(NC(=O)NC(C)(C)c2nc(-c3ccc(Cl)c(O)c3)c(-c3ccncc3)[nH]2)cc1`: the XC50 came out at 113 nM. Under `Cc1ccc(O)cc1Nc1ccnc2cc(-c3csc(CNCCN4CCOCC4)n3)ccc12` stands 884 nM; under `COc1cc(NCCCCNc2ccc(Cl)c(Cl)c2)nc2ccccc12`, 527 nM; under `Cc1ccc(-n2nc3ccc(NC(=O)c4ccc([N+](=O)[O-])o4)cc3n2)cc1C`, 397 nM. Take `COc1ccc2nccc([C@@H](O)CNCCCN(C)CCOc3cc(F)cc(F)c3)c2c1`: the XC50 was determined as 789 nM. `O=C(Nc1ccc(C(=O)Oc2ccc3ccccc3c2)cc1)N[C@@H](Cc1ccc(O)cc1)C(=O)NC1CCN(Cc2ccc(O)cc2)C1` (stereo not given in full): the XC50 came out at 1060 nM. Compound `CCCCc1ccc(NC(=O)Nc2ccc3c(c2)CCNCC3)cc1` returned an XC50 of 585 nM.

`COc1ccc2ccccc2c1CCCCN1CCN(CC(c2ccc(F)cc2)N2CCC2)CC1` (stereo not given) showed an XC50 of 759 nM.

Take `COc1ccc(C(=O)Nc2ccc3nc(N4CCCCC4)cc(C)c3c2)cc1OC`: the XC50 amounted to 994 nM. For the compound `c1ccc(-c2nc3ccccc3[nH]2)c(Nc2ccnc3cc(-c4nccs4)ccc23)c1`, the XC50 was found to be 740 nM. Turning to `COc1ccc(C(=O)NCCCCN2CCC(c3ccc4c(c3OC)CCCC4)CC2)cc1-c1ccc(C(F)(F)F)cc1`, the XC50 came out at 755 nM. Under `O=C(NCCN1CCCC1)c1cccc(-c2ccc(-c3nc4cc(C(F)(F)F)ccc4[nH]3)cc2)c1` stands 752 nM; under `Cc1ccc2[nH]c(C)cc(=NN=Cc3ccccc3Cl)c2c1`, 752 nM; under `CC(C)CCN1CCC(Oc2cccc(NC(=O)c3ccc(C(F)(F)F)cc3)c2)CC1`, 630 nM. Under `CCOc1ccc(C=CC(=O)Nc2ccc3nc(N4CCOCC4)cc(C)c3c2)cc1OC` stands 901 nM. For `CCC(C)CN1CCN(c2ccc(NC(=O)c3cccs3)cc2)CC1C` (stereo not given), the XC50 was 655 nM. For the compound `Cn1c2ccccc2c2c3ccccc3c(CNC(CO)(CO)CO)cc21`, the XC50 came out at 518 nM.

The compound `COC(=O)c1cccc(CNCc2ccc(-c3ccc(-c4nc5ccccc5[nH]4)s3)cc2)c1` displayed an XC50 of 289 nM.

In turn, `CCCN(CC1CC1)c1ncc(-c2cccc(CNCCC3CCCN3C)c2)cn1` (stereo not given) registered an XC50 of 749 nM.

Compound `Cc1ncccc1C(=O)Nc1cccc(-c2cccc(-c3nc4cc(C(F)(F)F)ccc4[nH]3)c2)c1` had an XC50 of 602 nM. In turn, `S=C(NCCc1ccc(Cl)cc1)N1CCC(CN2CCC(c3c[nH]c4ccccc34)CC2)CC1` yielded an XC50 of 1000 nM.

For the compound `CNCCN(C)C(=O)Oc1c(Br)c(C)nc(C)c1-c1ccc(Oc2ccc(OC(F)(F)F)cc2)cc1`, the XC50 was 109 nM.

In turn, `O=C(NCCCCN1CCC(c2ccc3c(c2OCCCO)CCCC3)CC1)c1ccc(-c2ccc(C(F)(F)F)cc2)cc1` had an XC50 of 718 nM. On to `NCC1CCCN1Cc1ccc(-c2ccc(-c3nc4ccccc4[nH]3)s2)cc1` (stereo not given), for which the XC50 is 934 nM. The compound `CCOc1ccc2c(=NN=Cc3cccc(F)c3)cc(C)[nH]c2c1` gave an XC50 of 714 nM. `CC[C@H]1CN2CCc3cc(OC)c(OC)cc3[C@@H]2C[C@@H]1C[C@H]1NCCc2c1cc(OC)c(O)c2I` registered an XC50 of 216 nM. Under `Cc1[nH]c(C)c(-c2ccc(-c3ccc(F)cc3)nc2)c(=O)c1Br` stands 248 nM; under `Cc1nc(-c2ccc(-c3ccc(NC(=O)c4coc5ccc(N6CC(C)N(C)C(C)C6)cc45)cc3)c(C)c2)no1` (stereo not given), 767 nM; under `O=C(Nc1ccc(CCNC2=NCCN2)cc1)Nc1ccc(CCNC2=NCCN2)cc1`, 789 nM.

Turning to `CC(C)N1CCN(C(CN2CCN(CCCOc3cccc4ccccc34)CC2)c2ccc(F)cc2)CC1` (stereo not given), the XC50 was determined as 879 nM. As to `COc1ccc(NC(=O)c2ccc(Br)c(C)c2)cc1N1CCN(CCCCc2ccccc2)CC1`, the XC50 came out at 817 nM. In the case of `CN1CCN(CCCN(Cc2csc(-c3ccc(CNCc4ccccc4)cc3)n2)S(=O)(=O)c2ccc(F)cc2)CC1`, the XC50 is 858 nM.

The compound `Cc1cc(=NN=Cc2cccc(F)c2)c2cc(F)ccc2[nH]1` showed an XC50 of 478 nM. `COc1ccc(CNC(=O)NC2CCN(c3ccnc(Nc4ccc(F)cc4)n3)C2)cc1` (stereo not given) came in with an XC50 of 842 nM. `Oc1ccc(CCNc2nc(NCc3cccc(-c4cc(C(F)(F)F)ccc4Cl)c3)nc(N3CCNCC3)n2)cc1` had an XC50 of 1780 nM.

Consider `Cc1ccc2nc3sc(C(=O)NCCCN4CCC(N5CCCCC5)CC4)cc3cc2c1`, for which the XC50 worked out at 675 nM. Under `CC(C)CN(c1nc(C(=O)NNC(=O)[C@H](CC2CC2)NC(=O)c2cc3cc(OCCN4CCCCC4)ccc3o2)cs1)C1CC1` stands 213 nM.

Consider `Cc1[nH]c2cc(Cl)ccc2c1C1=CCN(CCCCC2(C)C(=O)Nc3c(F)cccc32)CC1` (stereo not given), for which the XC50 is 843 nM. The compound `COCCn1c(Sc2ccc(C#N)c([N+](=O)[O-])c2)nnc1-c1ccc(N(C)C)cc1` came in with an XC50 of 1030 nM. Compound `O=C(N[C@@H](CC1CCCCC1)C(=O)NCCN1CCOCC1)c1ccc(O)c(-c2ccc(Cl)c(Cl)c2)c1` had an XC50 of 181 nM. In turn, `CCCNCCc1ccc(NS(=O)(=O)c2cccc(-c3ccc(Cl)cc3)c2)cc1` returned an XC50 of 975 nM. Under `COc1ccc(CNCc2cccc(-c3csc(-c4nc5ccccc5[nH]4)c3)c2)cc1` stands 645 nM; under `N=C(N)Nc1ccc(NC(=O)Nc2ccc(NC(=N)N)cc2)cc1`, 386 nM.

As to `O=C(Nc1ccc(-c2cccc(-c3nc4cc(F)ccc4[nH]3)c2)cc1)Nc1ccc(F)c(F)c1F`, the XC50 worked out at 739 nM.
